Literature values as cited in patent publication US10227355B2, “Quinoline derivatives and preparation thereof” (COUNCIL OF SCIENTIFIC AND INDUSTRIAL RESEARCH, priority 2015, dated 2019).

Test system: Plasmodium cynomolgi B
Settings: intramuscularly, 7 daily doses of 15 mg/kg; observation period of 120 d; rhesus monkeys

Structure (SMILES) | anti-relapse (curative) activity
CCCCCCCCCCOc1cc2c(OC(C)=O)c(C(=O)OC)cnc2cc1OC(C)C [WR 194905, 4-acetoxy-6-decyloxy-7-isopropoxy-3-methoxycarbonylquinoline] | curative
CCCCc1cc2c(O)c(C(=O)OC)cnc2cc1OCCOc1ccccc1 [WR 197236, 6-butyl-4-hydroxy-3-methoxycarbonyl-7-β-phenoxyethoxyquinoline] | curative
